Test results as given in patent US20220202725A1, “Modified or Targeted Release Formulations of Linaclotide” (Ironwood Pharmaceuticals, Inc., priority 2015, published 2022).
Where no end group is shown, it is not given here.

Legend:
[1] = test system: bladder afferents of CVH mice; assay: Ex-vivo afferent recordings from bladder pelvic afferents during ramp distension; format: in vivo, C57/BL6 mice; details: vs vehicle
Description: (§1) Male C57 BL/6 mice were used in all experiments. Colitis was induced by administration of TNBS as described previously (Brierley et al., (2011) J. Physiol, 15: 3575-3593, incorporated herein by reference in its entirety). Briefly, 13-week-old mice were administered an intra-colonic enema of 0.1 mL TNBS (130 μg/mL in 30% EtOH) via a polyethylene catheter inserted 3 cm from the anus of isoflurane anaesthetized mice. Mice were then individually housed and observed daily for changes in body weight, physical appearance and behavior. Histological examination of mucosal architecture, cellular infiltrate, crypt abscesses, and goblet cell depletion confirmed TNBS-induced significant damage by day 3-post treatment, largely recovered by day 7 and fully recovered at the day 28-time point (Brierley et al., (2008) Gastroenterology, 134: 2059-69, incorporated herein by reference). High-threshold nociceptors from mice at the 28 day time point display significant mechanical hypersensitivity, lower mechanical activation thresholds and display hyperalgesia and allodynia. As such, they are therefore termed ‘chronic visceral hypersensitivity’ (CVH) mice.
Pelvic bladder afferents are classified by their ability to respond to urinary bladder ramp distension. During bladder distension there is an increase in intravesical pressure and a corresponding increase in the afferent neuron activity. The mechanosensitivity of these afferents was tested in bladder preparations from healthy and CVH mice as well as CVH mice that received either a 2 week treatment of once daily oral gavage of vehicle or of linaclotide (3 μg/kg/day) by ramp distension to a final intravesical pressure of 30 mmHg.
Recordings were made from healthy and CVH mice, which had been chronically administered either vehicle or linaclotide (3 μg/kg/day) for a total duration to 2 weeks, and which were euthanized via CO2 inhalation and cervical dislocation. The animal was cut in two at the level of L2, removing vascular connections via the aorta and vena cava, yet ensuring the kidneys and ureters remained intact. […]

[2] = test system: bladder afferents and detrusor smooth muscle of CVH mice; assay: Exogenous chemical stimulation of bladder afferents and bladder muscle (carbachol, αβMe-ATP, capsaicin); format: in vivo, C57/BL6 mice; details: vs vehicle
Description: as §1
The chemosensitivity of bladder afferents was also tested following isolation of pelvic afferents and catheterisation of the bladder described above. Following an equilibration period, when bladder afferent responses to ramp distension are stable, the bladder was distended to a physiological pressure of 6 mmHg above baseline. At this point, the saline perfusion is stopped but the outflow tap remains closed as to maintain the volume in the bladder. The bladder is maintained in this state to accommodate the increase in volume for 45 minutes whilst the baseline intravesical pressure and afferent firing stabilize.
Following the equilibration period, the bath perfusion is briefly turned off and a bolus dose of agonist is applied. Carbachol (1 μM), αβMe-ATP (30 μM), and capsaicin (10 μM) were applied in series with a 1 hr washout period between each dose.
Chemosensitive responses were measured as the number of action potentials crossing a pre-set threshold at a given time following agonist administration. The intravesical pressure was determined as the change from baseline pressure at a given time following agonist administration.
Data are expressed as mean with the SEM, and n is the number of animals. Data were analyzed using unpaired t-test to determine significance when comparing single points or a two-way analysis of variance (ANOVA) when comparing between experimental groups throughout a ramp distension or exogenous agonist protocol. Differences were considered significant at P<0.05. […] Muscle compliance is calculated by plotting intravesical pressure against intravesical volume, which is in turn determined from the time taken to distend to a particular pressure.
Whole nerve multifiber afferent nerve activity was quantified using the spike 2 software, which counted the number of action potentials crossing a pre-set threshold. Data are expressed as mean±SEM. n indicates the number of individual animals. Data were analyzed using Prism 5 software (GraphPad Software, San Diego, Calif., USA) where appropriate, un-paired t-tests were used, or two-way analysis of variance (ANOVA) followed by posthoc tests. Differences were considered significant at a level of *P<0.05, **P<0.01 and ***P<0.001.

[3] = test system: retrogradely traced bladder thoracolumbar (TL) DRG neurons; assay: Patch clamp recordings from retrogradely traced bladder DRG neurons; format: in vivo, C57/BL6 mice; details: TL DRG neurons from CVH mice, once daily oral gavage for 2 weeks, vs vehicle
Description: Laparotomy was performed on anaesthetized (2-3% isofluorane/0.3 L/min O2) mice. […]; ThermoFisher product nr. C22842 (former LifeTechnologies)) was used for subserosal injection (2-3 ul per injection) in descending colon or dorsal and lateral bladder using a 30G Hamilton needle. Incision was closed with Prolene 6/0 suture (Johnson&Johnson product nr. 8636G). All mice were given 100 ul of buprenorphine (1:12) and Baytril (1:20) for post-operative care and left for 4 days before humanely killed for DRG cell culture.
Recordings were made from healthy and CVH mice. CVH mice received chronic administration of either vehicle or linaclotide (3 μg/kg/day) for a total duration of 2 weeks. Mice were euthanized via CO2 inhalation and DRGs from thoracolumbar (T10-L1) and lumbosacral (L6-S1) regions removed and digested with 3 mg mL−1 collagenase II (Gibco) and 4 mg mL−1 dispase (Gibco) for 30 min at 37° C., followed by 3 mg mL−1 collagenase II only for 10 min at 37° C. […]
Recordings were made similarly to those we have described previously (Brierley et al., 2011, ibid). […] Signals were amplified by using an Axopatch 200A amplifier, digitized with a Digidata 1322A and recorded using pCLAMP 9 software (Molecular Devices, Sunnyvale, Calif., USA). […] In current clamp studies a series of depolarizing pulses (500 ms, 10 pA step) were applied from a holding potential ([…]) and the rheobase (or amount of current (pA) required for action potential generation) determined. The number of action potentials at rheobase and 2× rheobase was also determined and the resting membrane potential was noted. […]
Action potentials were recorded in current clamp mode and the rheobase, or the amount of injected current (pA) required to elicit an action potential determined. The numbers of action potentials at rheobase and 2× rheobase were also recorded as well as noting the resting membrane potential. Data were analyzed using Prism 5 software (GraphPad Software, San Diego, Calif., USA) where appropriate, un-paired t-tests or one-way analysis of variance (ANOVA) followed by posthoc tests. […]

[4] = human volunteers; cited from earlier work

Sequence: CCEYCCNPACTGCY (cysteine pairing not given here) [linaclotide]
- afferent nerve activity over the time course of ramp distension ([1]; once daily oral gavage 3 μg/kg/day for 2 weeks, FIG. 2A, P≤0.001): significant decrease
- peak afferent response to distension ([1]; once daily oral gavage 3 μg/kg/day for 2 weeks, FIG. 2B, P≤0.05): significant decrease
- bladder compliance ([1]; once daily oral gavage for 2 weeks, FIG. 2C): no change
- bladder afferent response to capsaicin ([2]; capsaicin 10 μM, once daily oral gavage for 2 weeks, p≤0.01): significantly reduced
- bladder contraction response to carbachol ([2]; carbachol 1 μM, once daily dosing for 2 weeks): significantly reduced
- bladder afferent response to carbachol ([2]; carbachol 1 μM, once daily oral gavage for 2 weeks, p≤0.001): significantly reduced
- bladder contraction response to αβMe-ATP ([2]; αβMe-ATP 30 μM, once daily dosing for 2 weeks): significantly reduced
- bladder afferent response to αβMe-ATP ([2]; αβMe-ATP 30 μM, once daily oral gavage for 2 weeks, p≤0.001): significantly reduced
- resting membrane potential [3]: no effect
- number of action potentials at 2× rheobase ([3]; p=0.02): significantly decreases
- rheobase ([3]; p=0.02): significantly increases
- oral dose found in feces [4]: about 5%
